Format in all cases: biochemical
Assay [1] has as its target T1, Flt3 (FMS-like tyrosine kinase-3) (Homo sapiens, UniProt P36888).
T1 sequence (P36888 27-993): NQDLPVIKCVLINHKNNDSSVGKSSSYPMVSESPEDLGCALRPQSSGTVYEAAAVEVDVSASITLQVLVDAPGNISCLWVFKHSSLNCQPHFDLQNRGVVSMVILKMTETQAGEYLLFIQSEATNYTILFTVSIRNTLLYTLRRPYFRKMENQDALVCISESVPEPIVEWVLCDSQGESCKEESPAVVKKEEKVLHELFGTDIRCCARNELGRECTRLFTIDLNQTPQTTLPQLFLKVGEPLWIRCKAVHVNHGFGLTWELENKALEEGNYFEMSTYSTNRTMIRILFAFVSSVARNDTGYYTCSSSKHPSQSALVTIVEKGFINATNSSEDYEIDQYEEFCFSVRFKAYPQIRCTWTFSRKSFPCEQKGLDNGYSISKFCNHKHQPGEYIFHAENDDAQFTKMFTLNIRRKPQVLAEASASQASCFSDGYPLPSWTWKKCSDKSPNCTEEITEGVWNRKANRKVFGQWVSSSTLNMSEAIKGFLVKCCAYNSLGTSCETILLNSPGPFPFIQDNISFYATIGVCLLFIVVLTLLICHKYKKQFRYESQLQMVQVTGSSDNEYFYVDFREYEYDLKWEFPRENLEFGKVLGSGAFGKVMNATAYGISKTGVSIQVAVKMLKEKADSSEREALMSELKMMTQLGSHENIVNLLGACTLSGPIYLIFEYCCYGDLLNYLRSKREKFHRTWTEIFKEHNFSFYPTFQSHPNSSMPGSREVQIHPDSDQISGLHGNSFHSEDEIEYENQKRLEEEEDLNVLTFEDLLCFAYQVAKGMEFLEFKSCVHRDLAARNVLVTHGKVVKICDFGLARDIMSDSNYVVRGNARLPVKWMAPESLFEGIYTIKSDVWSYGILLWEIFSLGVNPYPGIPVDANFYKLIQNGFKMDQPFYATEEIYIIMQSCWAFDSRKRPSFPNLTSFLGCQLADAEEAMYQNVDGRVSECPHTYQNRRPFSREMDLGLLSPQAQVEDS
Nature of the assay: Kinase assay (radioactive phosphate incorporation), Flt3. The settings on record: pIC50 is -log(IC50, M), read-out: Kinase Inhibition pIC50 Flt3 (converted). Here is the method:
(§1) Kinase assays. The compounds of the invention above were investigated for their ability to inhibit the enzymatic activity of various protein kinases (Table 2). This was achieved by measurement of incorporation of radioactive phosphate from ATP into appropriate polypeptide substrates. Recombinant protein kinases and kinase complexes were produced or obtained commercially. Assays were performed using 96-well plates and appropriate assay buffers (typically 25 mM β-glycerophosphate, 20 mM MOPS, 5 mM EGTA, 1 mM DTT, 1 mM […], pH 7.4), into which were added 2-4 μg of active enzyme with appropriate substrates. The reactions were initiated by addition of Mg/ATP mix (15 mM MgCl2+100 μM ATP with 30-50 kBq per well of [γ-^32P]-ATP) and mixtures incubated as required at 30° C. Reactions were stopped on ice, followed by filtration through p81 filterplates or GF/C filterplates (Whatman Polyfiltronics, Kent, UK). After washing 3 times with 75 mM aq orthophosphoric acid, plates were dried, scintillant added and incorporated radioactivity measured in a scintillation counter (TopCount, Packard Instruments, Pangbourne, Berks, UK). Compounds for kinase assay were made up as 10 mM stocks in DMSO and diluted into 10% DMSO in assay buffer.

The next assay addresses T2, Aurora A kinase (Homo sapiens, UniProt O14965).
T2 construct: purchased
T2 sequence (O14965 1-403): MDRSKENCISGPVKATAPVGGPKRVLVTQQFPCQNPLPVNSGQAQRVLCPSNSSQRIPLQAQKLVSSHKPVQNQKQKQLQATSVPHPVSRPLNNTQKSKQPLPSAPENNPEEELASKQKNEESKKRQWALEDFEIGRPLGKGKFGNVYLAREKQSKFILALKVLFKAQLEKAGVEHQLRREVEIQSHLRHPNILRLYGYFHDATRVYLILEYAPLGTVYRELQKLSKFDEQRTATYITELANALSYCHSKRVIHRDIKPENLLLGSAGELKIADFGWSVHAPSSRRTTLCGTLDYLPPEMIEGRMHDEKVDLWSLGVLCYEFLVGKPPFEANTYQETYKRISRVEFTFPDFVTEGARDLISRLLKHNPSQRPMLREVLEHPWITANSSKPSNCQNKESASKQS
Nature of the assay: Aurora-A (human) kinase assay (Kemptide substrate). The settings on record: pIC50 is -log(IC50, M); 15 μM ATP; read-out: Kinase Inhibition pIC50 Aurora A kinase (converted). The procedure: Aurora-A (human) kinase assay. This was achieved by measurement of incorporation of radioactive phosphate from ATP into Kemptide substrate (LRRASLG), upon phosphorylation by commercially obtained aurora-A kinase. Assays were performed using 96-well plates and appropriate assay buffers (8 mM MOPS, 0.2 mM EDTA, pH 7.0), into which were added 5-10 ng of active enzyme with 200 μM substrate (Kemptide). The reactions were initiated by addition of Mg/ATP mix (10 mM MgAcetate+15 μM ATP with 30-50 kBq per well of [γ-^33P]-ATP) and mixtures incubated for 40 min at room temperature. Reactions were stopped by addition of 3% phosphoric acid, followed by filtration through p81 filterplates (Whatman Polyfiltronics, Kent, UK). After washing 5 times with 75 mM aq orthophosphoric acid and once in methanol, plates were dried, scintillant added and incorporated radioactivity measured in a scintillation counter (TopCount, Packard Instruments, Pangbourne, Berks, UK). Compounds for kinase assay were made up as 10 mM stocks in DMSO and diluted into 10% DMSO in assay buffer.

For another assay, the target named is CDK2-cycline E (Homo sapiens, UniProt P24941). The assay is described as follows: Kinase assay (radioactive phosphate incorporation), CDK2-cyclin E. The settings on record: read-out: Kinase Inhibition pIC50 CDK2-cycline E (converted). Here is the method:
as §1

The next assay deals with CDK9/cyclin T1 (Homo sapiens, UniProt P50750). The assay is described as follows: CDK 9 assay (CTD peptide substrate). The settings on record: read-out: Kinase Inhibition pIC50 CDK9-cyclin T1 (converted). Here is the method:
as §1
(§2) CDK 7 and 9 assays. CTD peptide substrate (biotinyl-Abx-(Tyr-Ser-Pro-Thr-Ser-Pro-Ser)4-NH2; 1-2 mg/mL) and recombinant human CDK7/cyclin H, CDK9/cyclin T1, or CDK9/cyclin K (0.5-2 μg) were incubated for 45 min at 30° C. in the presence of varying amounts of test compound in 20 mM MOPS pH 7.2, 25 mM β-glycerophosphate, 5 mM EGTA, 1 mM DTT, 1 mM sodium vanadate, 15 mM MgCl2, and 100 μM ATP (containing a trace amount of ^32PγATP) in a total volume of 25 μL in a 96-well microtiter plate. The reaction was stopped by placing the plate on ice for 2 min. Avidin (50 μg) was added to each well, and the plate was incubated at room temp for 30 min. The samples were transferred to a 96-well P81 filter plate, and washed (4×200 μL per well) with 75 mM phosphoric acid. Microscint 40 scintillation liquid (50 μL) was added to each well, and the amount of ^32P incorporation for each sample was measured using a Packard Topcount microplate scintillation counter.

In another assay the target is CDK7/cyclin H (Homo sapiens, UniProt P50613). The assay is described as follows: CDK 7 assay (CTD peptide substrate). The settings on record: read-out: Kinase Inhibition pIC50 CDK7-cyclin H (converted). The procedure:
as §1, §2

Each structure is given as a SMILES string.

Sequence of CDK7/cyclin H (P50613 whole entry): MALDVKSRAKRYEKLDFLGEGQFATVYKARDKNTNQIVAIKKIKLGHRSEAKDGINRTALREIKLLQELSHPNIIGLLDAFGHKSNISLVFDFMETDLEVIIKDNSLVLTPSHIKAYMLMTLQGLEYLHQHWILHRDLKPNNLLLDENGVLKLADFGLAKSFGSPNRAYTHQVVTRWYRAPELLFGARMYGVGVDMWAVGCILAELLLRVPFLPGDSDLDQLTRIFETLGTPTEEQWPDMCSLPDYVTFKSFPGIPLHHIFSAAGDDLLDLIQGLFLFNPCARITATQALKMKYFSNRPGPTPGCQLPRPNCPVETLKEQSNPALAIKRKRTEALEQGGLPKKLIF
Sequence of CDK7/cyclin H (P51946 whole entry partner): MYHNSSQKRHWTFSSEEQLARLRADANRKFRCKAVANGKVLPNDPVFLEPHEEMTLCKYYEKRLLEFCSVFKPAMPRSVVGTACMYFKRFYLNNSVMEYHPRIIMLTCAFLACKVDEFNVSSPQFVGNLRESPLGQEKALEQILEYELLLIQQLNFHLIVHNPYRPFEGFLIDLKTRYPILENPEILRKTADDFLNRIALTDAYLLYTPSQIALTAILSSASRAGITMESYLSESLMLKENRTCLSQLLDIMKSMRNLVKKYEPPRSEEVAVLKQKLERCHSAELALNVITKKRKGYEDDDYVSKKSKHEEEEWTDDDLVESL
Sequence of CDK9/cyclin T1 (P50750 whole entry): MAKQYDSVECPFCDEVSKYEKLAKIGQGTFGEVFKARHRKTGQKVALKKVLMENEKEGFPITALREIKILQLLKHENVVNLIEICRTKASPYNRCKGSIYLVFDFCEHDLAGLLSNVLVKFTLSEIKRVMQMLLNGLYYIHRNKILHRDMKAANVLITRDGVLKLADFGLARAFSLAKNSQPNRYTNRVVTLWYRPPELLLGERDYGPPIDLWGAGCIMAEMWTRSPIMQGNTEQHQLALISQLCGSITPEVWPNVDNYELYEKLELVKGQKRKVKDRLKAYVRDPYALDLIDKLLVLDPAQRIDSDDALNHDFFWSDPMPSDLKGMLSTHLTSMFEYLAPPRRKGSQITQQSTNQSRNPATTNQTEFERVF
Sequence of CDK9/cyclin T1 (O60563 whole entry partner): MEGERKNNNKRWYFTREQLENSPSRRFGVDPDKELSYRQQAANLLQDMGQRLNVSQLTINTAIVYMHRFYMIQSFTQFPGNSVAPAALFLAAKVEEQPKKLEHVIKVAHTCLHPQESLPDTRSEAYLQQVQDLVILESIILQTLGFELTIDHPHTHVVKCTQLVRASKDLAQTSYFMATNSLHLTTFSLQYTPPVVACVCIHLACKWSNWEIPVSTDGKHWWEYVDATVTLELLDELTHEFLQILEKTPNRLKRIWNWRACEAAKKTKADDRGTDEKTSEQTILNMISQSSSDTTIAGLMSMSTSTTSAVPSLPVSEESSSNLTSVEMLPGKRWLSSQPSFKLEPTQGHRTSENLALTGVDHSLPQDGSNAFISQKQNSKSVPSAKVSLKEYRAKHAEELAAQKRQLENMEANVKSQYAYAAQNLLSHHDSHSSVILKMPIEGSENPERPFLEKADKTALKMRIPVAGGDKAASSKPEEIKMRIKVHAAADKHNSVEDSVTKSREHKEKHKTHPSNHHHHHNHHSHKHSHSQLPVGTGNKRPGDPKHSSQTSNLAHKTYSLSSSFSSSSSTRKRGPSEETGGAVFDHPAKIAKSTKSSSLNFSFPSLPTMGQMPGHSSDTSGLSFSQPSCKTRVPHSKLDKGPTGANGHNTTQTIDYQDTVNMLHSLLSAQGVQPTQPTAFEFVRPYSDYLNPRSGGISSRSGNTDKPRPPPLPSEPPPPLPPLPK

Regarding `Cc1nc(C)c(-c2ccnc(Nc3cc(CO)cc(CO)c3)n2)s1` [Compound 47, {3-[4-(2,4-Dimethyl-thiazol-5-yl)-pyrimidin-2-ylamino]-5-hydroxymethyl-phenyl}-methanol], the IC50 in assay [1] was 200 nM.
As to `Cc1nc(C)c(-c2ccnc(Nc3ccc(N4CC(C)OC(C)C4)cc3)n2)s1` (stereo not drawn) [Compound 121, [4-(2,6-Dimethyl-morpholin-4-yl)-phenyl]-[4-(2,4-dimethyl-thiazol-5-yl)-pyrimidin-2-yl]-amine], the IC50 at Aurora A kinase was 39.8 nM; at CDK2-cycline E, 5010 nM; in assay [1], 398 nM; on CDK9/cyclin T1, 3980 nM.
As for `Cc1nc(C)c(-c2ccnc(Nc3cccc(CN4CCOCC4)c3)n2)s1` [Compound 150, [4-(2,4-Dimethyl-thiazol-5-yl)-pyrimidin-2-yl]-(3-morpholin-4-ylmethyl-phenyl)-amine], the IC50 is 158 nM on Aurora A kinase, 1260 nM at CDK2-cycline E and 126 nM in assay [1].
On to `Cc1nc(C)c(-c2ccnc(Nc3ccc(O)c(CN4CCOCC4)c3)n2)s1` [Compound 151, 4-[4-(2,4-Dimethyl-thiazol-5-yl)-pyrimidin-2-ylamino]-2-morpholin-4-ylmethyl-phenol], for which the results for the IC50 (at Aurora A kinase; on CDK2-cycline E; in assay [1]) were 63.1 nM, 200 nM and 63.1 nM, respectively.
In the case of `Cc1nc(C)c(-c2ccnc(Nc3cccc(N4CCOCC4)c3)n2)s1` [Compound 152, [4-(2,4-Dimethyl-thiazol-5-yl)-pyrimidin-2-yl]-(3-morpholin-4-yl-phenyl)-amine], the IC50 on Aurora A kinase was 50.1 nM; on CDK2-cycline E, 316 nM; in assay [1] it was 31.6 nM.
As to `COc1cc(Nc2nccc(-c3sc(-c4cccnc4)nc3C)n2)cc(OC)c1OC` [Compound 154, [4-(4-Methyl-2-pyridin-3-yl-thiazol-5-yl)-pyrimidin-2-yl]-(3,4,5-trimethoxy-phenyl)-amine], the IC50 was 79.4 nM at Aurora A kinase and 100 nM in assay [1].
Take `COc1cc(Nc2nccc(-c3sc(-c4cccnc4)nc3C)n2)ccc1N1CCOCC1` [Compound 156, (3-Methoxy-4-morpholin-4-yl-phenyl)-[4-(4-methyl-2-pyridin-3-yl-thiazol-5-yl)-pyrimidin-2-yl]-amine]: the IC50 (on Aurora A kinase; in assay [1]) was 100 nM throughout.
As for `CNc1nc(C)c(-c2ccnc(Nc3cc(OC)cc(OC)c3)n2)s1` [Compound 170, (3,5-Dimethoxy-phenyl)-[4-(4-methyl-2-methylamino-thiazol-5-yl)-pyrimidin-2-yl]-amine], the IC50 at Aurora A kinase is 63.1 nM; at CDK2-cycline E, 316 nM; in assay [1], 10 nM.
Regarding `Cc1nc(C)c(-c2ccnc(Nc3ccc(N4CCN(CC(=O)NC(C)C)CC4)cc3)n2)s1` [Compound 190, 2-(4-{4-[4-(2,4-Dimethyl-thiazol-5-yl)-pyrimidin-2-ylamino]-phenyl}-piperazin-1-yl)-N-isopropyl-acetamide], the IC50 is 63.1 nM at Aurora A kinase, 1000 nM at CDK2-cycline E, 7940 nM at CDK7/cyclin H and 2510 nM on CDK9/cyclin T1.
Take `Cc1nc(N)sc1-c1ccnc(Nc2ccc(N3CCCCC3)cc2)n1` [Compound 195, [4-(2-Amino-4-methyl-thiazol-5-yl)-pyrimidin-2-yl]-(4-piperidin-1-yl-phenyl)-amine]: the IC50 was 39.8 nM on Aurora A kinase, 794 nM at CDK2-cycline E, 1580 nM on CDK7/cyclin H and 398 nM on CDK9/cyclin T1.
Take `Cc1nc(CO)sc1-c1ccnc(Nc2ccc(N3CCCCC3)cc2)n1` [Compound 197, {4-Methyl-5-[2-(4-piperidin-1-yl-phenylamino)-pyrimidin-4-yl]-thiazol-2-yl}-methanol]: the IC50 at Aurora A kinase is 100 nM; on CDK2-cycline E, 2510 nM; at CDK7/cyclin H, 7940 nM; at CDK9/cyclin T1 it was 3160 nM.
Consider `Cc1nc(N)sc1-c1ccnc(Nc2ccc(N3CCOCC3)c(C(N)=O)c2)n1` [Compound 211, 5-[4-(2-Amino-4-methyl-thiazol-5-yl)-pyrimidin-2-ylamino]-2-morpholin-4-yl-benzamide], for which the IC50 is 158 nM on Aurora A kinase, 2510 nM on CDK2-cycline E, 6310 nM at CDK7/cyclin H and 2000 nM at CDK9/cyclin T1.
In the case of `COc1cc(Nc2nccc(-c3sc(CO)nc3C)n2)ccc1N1CCCCC1` [Compound 216, {5-[2-(3-Methoxy-4-piperidin-1-yl-phenylamino)-pyrimidin-4-yl]-4-methyl-thiazol-2-yl}-methanol], the IC50 at Aurora A kinase is 63.1 nM; at CDK2-cycline E it was 1580 nM; at CDK7/cyclin H, 1580 nM; at CDK9/cyclin T1 it was 631 nM.
`Cc1cc(Nc2nccc(-c3sc(CO)nc3C)n2)ccc1N1CCOCC1` [Compound 217, {4-Methyl-5-[2-(3-methyl-4-morpholin-4-yl-phenylamino)-pyrimidin-4-yl]-thiazol-2-yl}-methanol]: the IC50 at Aurora A kinase was 50.1 nM; at CDK2-cycline E it was 1260 nM; at CDK7/cyclin H, 7940 nM; at CDK9/cyclin T1, 3980 nM.

Source of the values: patent US20090137572A1, “2-substituted-4-heteroaryl-pyrimidines useful for the treatment of proliferative disorders” (priority 2004, published 2009).
